Measured values: patent US10800791B2, “Triazole ACC inhibitors and uses thereof” (Gilead Apollo, LLC, priority 2015, dated 2020)
In brackets after ≈: the same amount, converted by molar mass. Read-outs that look alike come from different tables or passages of the source.

Columns and labels:
C. krusei = assay: Antifungal Activity Assay (broth microtiter MIC), C. krusei; assay type: cell-based, Candida krusei; conditions: Pichia kudriavzevii, ATCC6258, 48 h
Outline: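 Colonies from 24 h Sabouraud dextrose agar plates (35° C) are suspended in RPMI 1640+MOPS and diluted to give 2.5×10^3 CFU/mL in the wells. Plates are set up per CLSI M27-A3. Visual MIC is recorded at 48 h.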

[1] = system: Fusarium moniliforme (Fm); assay: Growth inhibition assay of fungal pathogens, Fm; assay type: cell-based; conditions: for IC90: Fusarium verticillioides, 48 h, read-out: Concentration at 90% Inhibition Fm
Outline: (§1)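 Spores from sub-cultured plates were diluted in 17% V8 liquid medium and exposed to compound from DMSO stocks at final concentrations of 50, 10 and 2 ppm or 2, 0.4 and 0.08 ppm. OD600 and visual ratings at 48 h were compared with the 2% DMSO control to give percent growth inhibition.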

[2] = system: Fusarium virguliforme (Fv); assay: Growth inhibition assay of fungal pathogens, Fv; assay type: cell-based; conditions: 48 h
Outline: as §1

[3] = Table 3a, ATCC 6258, 3 replicates, MIC recorded at 48 h, read-out: MIC, C. krusei ATCC 6258
[4] = Table 3b (additional results), ATCC 6258, 3 replicates, MIC recorded at 48 h, read-out: MIC, C. krusei ATCC 6258
[5] = Fusarium moniliforme, growth inhibition at 48 hours vs 2% DMSO control
[6] = Fusarium moniliforme, growth inhibition vs 2% DMSO control at 48 hours
[7] = growth inhibition at 48 hours vs 2% DMSO control, read-out: Concentration at 90% Inhibition Fv
[8] = growth inhibition vs 2% DMSO control at 48 hours, read-out: Concentration at 90% Inhibition Fv
[9] = read-out: MIC, C. krusei ATCC 6258, Table 3a, 3 replicates, MIC recorded at 48 h
[10] = read-out: MIC, C. krusei ATCC 6258, Table 3b (additional results), 3 replicates, MIC recorded at 48 h
[11] = read-out: Concentration at 90% Inhibition Fv, Fusarium virguliforme, growth inhibition at 48 hours vs 2% DMSO control
[12] = read-out: Concentration at 90% Inhibition Fv, Fusarium virguliforme, growth inhibition vs 2% DMSO control at 48 hours

SMILES | MIC (C. krusei; [3]) | MIC (C. krusei; [4]) | IC90 [1, 5] | IC90 [1, 6] | IC90 [2, 7] | IC90 [2, 8] | MIC (C. krusei; [9]) | MIC (C. krusei; [10]) | Concentration at 90% Inhibition Fm [1, 5] | IC90 [1] | IC90 [2, 11] | IC90 [2, 12]
COc1ccc(F)cc1[C@H](Cn1c(=O)n(C(C)(C)C(N)=O)c(=O)c2c(C)c(-n3nccn3)sc21)OC1CCOCC1 [Compound I-1] | 0.25 to 1 µg/mL (≈ 0.426 to 1.7 µM) | 0.25 to 1 µg/mL (≈ 0.426 to 1.7 µM) | 0.4 µg/mL (≈ 0.682 µM) | 0.4 µg/mL (≈ 0.682 µM) | 2 µg/mL (≈ 3.41 µM) | 2 µg/mL (≈ 3.41 µM) | – | – | – | – | – | –
COc1ccc(F)cc1[C@H](Cn1c(=O)n(C(C)(C)C(N)=O)c(=O)c2c(C)c(-n3nccn3)sc21)OC(C)C [Compound I-2, (R)-2-(1-(2-(5-fluoro-2-methoxyphenyl)-2-isopropoxyethyl)-5-methyl-2,4-dioxo-6-(2H-1,2,3-triazol-2-yl)-1,4-dihydrothieno[2,3-d]pyrimidin-3(2H)-yl)-2-methylpropanamide] | 0.25 to 1 µg/mL (≈ 0.459 to 1.84 µM) | 0.25 to 1 µg/mL (≈ 0.459 to 1.84 µM) | 0.4 µg/mL (≈ 0.734 µM) | 0.4 µg/mL (≈ 0.734 µM) | 0.4 µg/mL (≈ 0.734 µM) | 0.4 µg/mL (≈ 0.734 µM) | – | – | – | – | – | –
CCNC(=O)C(C)(C)n1c(=O)c2c(C)c(-n3nccn3)sc2n(C[C@H](OC(C)C)c2cc(F)ccc2OC)c1=O [Compound I-3, (R)—N-ethyl-2-(1-(2-(5-fluoro-2-methoxyphenyl)-2-isopropoxyethyl)-5-methyl-2,4-dioxo-6-(2H-1,2,3-triazol-2-yl)-1,4-dihydrothieno[2,3-d]pyrimidin-3(2H)-yl)-2-methylpropanamide] | – | – | – | – | – | – | 0.25 to 1 µg/mL (≈ 0.437 to 1.75 µM) | 0.25 to 1 µg/mL (≈ 0.437 to 1.75 µM) | AA (compound concentration of 0.08 ppm at 90% inhibition of fungal pathogens) | 0.08 µg/mL (≈ 0.14 µM) | 0.4 µg/mL (≈ 0.698 µM) | 0.4 µg/mL (≈ 0.698 µM)
COc1ccc(F)cc1[C@H](Cn1c(=O)n(C(C)(C)C(=O)NC(C)C)c(=O)c2c(C)c(-n3nccn3)sc21)OC(C)C [Compound I-4, (R)-2-(1-(2-(5-fluoro-2-methoxyphenyl)-2-isopropoxyethyl)-5-methyl-2,4-dioxo-6-(2H-1,2,3-triazol-2-yl)-1,4-dihydrothieno[2,3-d]pyrimidin-3(2H)-yl)-N-isopropyl-2-methylpropanamide] | – | – | – | – | – | – | 0.25 to 1 µg/mL (≈ 0.426 to 1.7 µM) | 0.25 to 1 µg/mL (≈ 0.426 to 1.7 µM) | AA (compound concentration of 0.08 ppm at 90% inhibition of fungal pathogens) | 0.08 µg/mL (≈ 0.136 µM) | 0.4 µg/mL (≈ 0.682 µM) | 0.4 µg/mL (≈ 0.682 µM)
COc1ccc(F)cc1[C@H](Cn1c(=O)n(C(C)(C)C(=O)N2CCOCC2)c(=O)c2c(C)c(-n3nccn3)sc21)OC(C)C [Compound I-5, (R)-1-(2-(5-fluoro-2-methoxyphenyl)-2-isopropoxyethyl)-5-methyl-3-(2-methyl-1-morpholino-1-oxopropan-2-yl)-6-(2H-1,2,3-triazol-2-yl)thieno[2,3-d]pyrimidine-2,4(1H,3H)-dione] | – | – | – | – | – | – | 1.1 to 2 µg/mL (≈ 1.79 to 3.25 µM) | 2.01 to 4 µg/mL (≈ 3.27 to 6.51 µM) | AA (compound concentration of 0.08 ppm at 90% inhibition of fungal pathogens) | 0.08 µg/mL (≈ 0.13 µM) | 0.4 µg/mL (≈ 0.651 µM) | 0.4 µg/mL (≈ 0.651 µM)
COc1ccc(F)cc1[C@H](Cn1c(=O)n(C(C)(C)C(=O)N2CCCCC2)c(=O)c2c(C)c(-n3nccn3)sc21)OC(C)C [Compound I-6, (R)-1-(2-(5-fluoro-2-methoxyphenyl)-2-isopropoxyethyl)-5-methyl-3-(2-methyl-1-oxo-1-(piperidin-1-yl)propan-2-yl)-6-(2H-1,2,3-triazol-2-yl)thieno[2,3-d]pyrimidine-2,4(1H,3H)-dione] | – | – | – | – | – | – | 0.25 to 1 µg/mL (≈ 0.408 to 1.63 µM) | 0.25 to 1 µg/mL (≈ 0.408 to 1.63 µM) | AA (compound concentration of 0.08 ppm at 90% inhibition of fungal pathogens) | 0.08 µg/mL (≈ 0.131 µM) | 0.08 µg/mL (≈ 0.131 µM) | 0.08 µg/mL (≈ 0.131 µM)
COc1ccc(F)cc1[C@H](Cn1c(=O)n(C(C)(C)C(=O)N2CCCC2)c(=O)c2c(C)c(-n3nccn3)sc21)OC(C)C [Compound I-7, (R)-1-(2-(5-fluoro-2-methoxyphenyl)-2-isopropoxyethyl)-5-methyl-3-(2-methyl-1-oxo-1-(pyrrolidin-1-yl)propan-2-yl)-6-(2H-1,2,3-triazol-2-yl)thieno[2,3-d]pyrimidine-2,4(1H,3H)-dione] | 0.25 to 1 µg/mL (≈ 0.418 to 1.67 µM) | 0.25 to 1 µg/mL (≈ 0.418 to 1.67 µM) | 0.08 µg/mL (≈ 0.134 µM) | 0.08 µg/mL (≈ 0.134 µM) | 0.08 µg/mL (≈ 0.134 µM) | 0.08 µg/mL (≈ 0.134 µM) | – | – | – | – | – | –
COc1ccc(F)cc1[C@H](Cn1c(=O)n(C(C)(C)C(N)=O)c(=O)c2c(C)c(-n3nccn3)sc21)OCC(C)C [Compound I-8, (R)-2-(1-(2-(5-fluoro-2-methoxyphenyl)-2-isobutoxyethyl)-5-methyl-2,4-dioxo-6-(2H-1,2,3-triazol-2-yl)-1,4-dihydrothieno[2,3-d]pyrimidin-3(2H)-yl)-2-methylpropanamide] | 1.1 to 2 µg/mL (≈ 1.97 to 3.58 µM) | 1.01 to 2 µg/mL (≈ 1.81 to 3.58 µM) | 0.08 µg/mL (≈ 0.143 µM) | 0.08 µg/mL (≈ 0.143 µM) | 2 µg/mL (≈ 3.58 µM) | 2 µg/mL (≈ 3.58 µM) | – | – | – | – | – | –
CCNC(=O)C(C)(C)n1c(=O)c2c(C)c(-n3nccn3)sc2n(C[C@H](OCC(C)C)c2cc(F)ccc2OC)c1=O [Compound I-9, (R)—N-ethyl-2-(1-(2-(5-fluoro-2-methoxyphenyl)-2-isobutoxyethyl)-5-methyl-2,4-dioxo-6-(2H-1,2,3-triazol-2-yl)-1,4-dihydrothieno[2,3-d]pyrimidin-3(2H)-yl)-2-methylpropanamide] | 0.25 to 1 µg/mL (≈ 0.426 to 1.7 µM) | 0.25 to 1 µg/mL (≈ 0.426 to 1.7 µM) | 0.08 µg/mL (≈ 0.136 µM) | 0.08 µg/mL (≈ 0.136 µM) | 0.4 µg/mL (≈ 0.682 µM) | 0.4 µg/mL (≈ 0.682 µM) | – | – | – | – | – | –
COc1ccc(F)cc1[C@H](Cn1c(=O)n(C(C)(C)C(=O)N2CCCCC2)c(=O)c2c(C)c(-n3nccn3)sc21)OCC(C)C [Compound I-11, (R)-1-(2-(5-fluoro-2-methoxyphenyl)-2-isobutoxyethyl)-5-methyl-3-(2-methyl-1-oxo-1-(piperidin-1-yl)propan-2-yl)-6-(2H-1,2,3-triazol-2-yl)thieno[2,3-d]pyrimidine-2,4(1H,3H)-dione] | – | – | – | – | – | – | 1.1 to 2 µg/mL (≈ 1.76 to 3.19 µM) | 0.25 to 1 µg/mL (≈ 0.399 to 1.6 µM) | AA (compound concentration of 0.08 ppm at 90% inhibition of fungal pathogens) | 0.08 µg/mL (≈ 0.128 µM) | 2 µg/mL (≈ 3.19 µM) | 2 µg/mL (≈ 3.19 µM)
COc1ccc(F)cc1[C@H](Cn1c(=O)n(C(C)(C)C(=O)N2CCCC2)c(=O)c2c(C)c(-n3nccn3)sc21)OCC(C)C [Compound I-12, (R)-1-(2-(5-fluoro-2-methoxyphenyl)-2-isobutoxyethyl)-5-methyl-3-(2-methyl-1-oxo-1-(pyrrolidin-1-yl)propan-2-yl)-6-(2H-1,2,3-triazol-2-yl)thieno[2,3-d]pyrimidine-2,4(1H,3H)-dione] | 0.25 to 1 µg/mL (≈ 0.408 to 1.63 µM) | 0.25 to 1 µg/mL (≈ 0.408 to 1.63 µM) | 0.08 µg/mL (≈ 0.131 µM) | 0.08 µg/mL (≈ 0.131 µM) | 0.4 µg/mL (≈ 0.653 µM) | 0.4 µg/mL (≈ 0.653 µM) | – | – | – | – | – | –
COc1ccccc1[C@H](Cn1c(=O)n(C(C)(C)C(N)=O)c(=O)c2c(C)c(-n3nccn3)sc21)OC1CCOCC1 [Compound I-14, (R)-2-(1-(2-(2-methoxyphenyl)-2-((tetrahydro-2H-pyran-4-yl)oxy)ethyl)-5-methyl-2,4-dioxo-6-(2H-1,2,3-triazol-2-yl)-1,4-dihydrothieno[2,3-d]pyrimidin-3(2H)-yl)-2-methylpropanamide] | 0.25 to 1 µg/mL (≈ 0.44 to 1.76 µM) | 1.01 to 2 µg/mL (≈ 1.78 to 3.52 µM) | 0.08 µg/mL (≈ 0.141 µM) | 0.08 µg/mL (≈ 0.141 µM) | 10 µg/mL (≈ 17.6 µM) | > 50 µg/mL | – | – | – | – | – | –
CCNC(=O)C(C)(C)n1c(=O)c2c(C)c(-n3nccn3)sc2n(C[C@H](OC2CCOCC2)c2ccccc2OC)c1=O [Compound I-15, (R)—N-ethyl-2-(1-(2-(2-methoxyphenyl)-2-((tetrahydro-2H-pyran-4-yl)oxy)ethyl)-5-methyl-2,4-dioxo-6-(2H-1,2,3-triazol-2-yl)-1,4-dihydro-thieno[2,3-d]pyrimidin-3(2H)-yl)-2-methylpropanamide] | 0.25 to 1 µg/mL (≈ 0.419 to 1.68 µM) | 0.25 to 1 µg/mL (≈ 0.419 to 1.68 µM) | 0.08 µg/mL (≈ 0.134 µM) | 0.08 µg/mL (≈ 0.134 µM) | 10 µg/mL (≈ 16.8 µM) | > 50 µg/mL | – | – | – | – | – | –
